Source: patent US9988379B2, “GPR40 receptor agonist, methods of preparing the same, and pharmaceutical compositions containing the same as an active agent” (LG CHEM, LTD., priority 2012, dated 2018)

Biological target: T1, human GPR40 (Homo sapiens, UniProt O14842)
T1 construct: expressed in transfected cells; host or cells: CHO-K1
Experiment: Induction of Ca2+ (calcium flux assay) using human GPR40 expression cell line
Format: cell-based
Conditions: read-out: EC0.5
Method in brief: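 CHO-K1 cells stably transfected with human GPR40, plated 24 h, loaded 1 h at 37° C with Calcium 5 dye in HBSS/HEPES pH 7.4. Intracellular calcium change after compound addition read on FlexStation; concentration–response of relative activity used to derive EC0.5.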

T1 sequence (O14842 whole entry): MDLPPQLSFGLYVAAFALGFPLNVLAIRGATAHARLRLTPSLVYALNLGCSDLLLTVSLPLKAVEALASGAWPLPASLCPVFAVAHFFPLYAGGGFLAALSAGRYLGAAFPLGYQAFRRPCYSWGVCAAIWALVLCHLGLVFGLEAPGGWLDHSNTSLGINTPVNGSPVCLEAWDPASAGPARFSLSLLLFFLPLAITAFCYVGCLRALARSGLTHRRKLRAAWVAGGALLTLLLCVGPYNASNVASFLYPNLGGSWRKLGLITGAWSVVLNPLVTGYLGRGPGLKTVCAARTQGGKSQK

Compound	EC50 [nM]
CC#C[C@@H](CC(=O)O)c1ccc(OCc2cccc3c2c(F)nn3CCCC)cc1 [Example 198, (S)-3-[4-(1-butyl-3-fluoro-1H-indazol-4-ylmethoxy)-phenyl]-hex-4-ynoic acid]	16
COC(CC(=O)O)c1ccc(OCc2ccc3c(cnn3Cc3ccccc3)c2)cc1 (stereo not shown) [Example 155, 3-[4-(1-benzyl-1H-indazol-5-ylmethoxy)-phenyl]-3-methoxy-propanoic acid]	50 to 500
CC#C[C@@H](CC(=O)O)c1ccc(OCc2ccc3nnn(CC(C)C)c3c2)cc1 [Example 166, (S)-3-[4-(3-isobutyl-3H-benzotriazol-5-ylmethoxy)-phenyl]-hex-4-ynoic acid]	50 to 500
Cn1cc(Cc2ccccc2)c2cc(COc3ccc(CCC(=O)O)cc3)ccc21 [Example 20, 3-[4-(3-benzyl-1-methyl-1H-indol-5-ylmethoxy)-phenyl]-propanoic acid]	70
Cc1c(COc2ccc([C@H](CC(=O)O)c3ccon3)cc2)ccc2ccn(Cc3ccccc3)c12 [Example 83, (S)-3-[4-(1-benzyl-7-methyl-1H-indol-6-ylmethoxy)-phenyl]-3-isoxazol-3-yl-propanoic acid]	10
CC#C[C@@H](CC(=O)O)c1ccc(OCc2cc(C)c3c(cnn3CC(C)C)c2)cc1 [Example 130, (S)-3-[4-(1-isobutyl-7-methyl-1H-indazol-5-ylmethoxy)-phenyl]-hex-4-ynoic acid]	1 to 50
Cc1c(COc2ccc([C@H](CC(=O)O)c3ccon3)cc2)ccc2ccn(Cc3ccc(F)cc3)c12 [Example 84, (S)-3-{4-[1-(4-fluoro-benzyl)-7-methyl-1H-indol-6-ylmethoxy]-phenyl}-3-isoxazol-3-yl-propanoic acid]	50
CC#C[C@@H](CC(=O)O)c1ccc(OCc2ccc3cnn(CC4(C)COC4)c3c2)cc1 [Example 177, (S)-3-{4-[1-(3-methyl-oxetan-3-ylmethyl)-1H-indazol-6-ylmethoxy]-phenyl}-hex-4-ynoic acid]	1 to 50
Cc1c(COc2ccc(CCC(=O)O)cc2)ccc2ccn(Cc3ccccc3)c12 [Example 15, 3-[4-(1-benzyl-7-methyl-1H-indol-6-ylmethoxy)-phenyl]-propanoic acid]	10
CC(C)Cn1ncc2ccc(COc3ccc([C@H](CC(=O)O)c4ccon4)cc3)cc21 [Example 87, (S)-3-[4-(1-isobutyl-1H-indazol-6-ylmethoxy)-phenyl]-3-isoxazol-3-yl-propanoic acid]	10
CC#C[C@@H](CC(=O)O)c1ccc(OCc2cccc3c2cnn3CC(C)C)cc1 [Example 184, (S)-3-[4-(1-isobutyl-1H-indazol-4-ylmethoxy)-phenyl]-hex-4-ynoic acid]	1 to 50
CC#C[C@@H](CC(=O)O)c1ccc(OCc2ccc3cnn(Cc4ncccn4)c3c2)cc1 [Example 68, (S)-3-[4-(1-pyrimidin-2-ylmethyl-1H-indazol-6-ylmethoxy)-phenyl}-hex-4-ynoic acid]	50 to 500
CC#C[C@@H](CC(=O)O)c1ccc(OCc2ccc3c(cnn3CCC(C)C)c2)cc1 [Example 136, (S)-3-{4-[1-(3-methyl-butyl)-1H-indazol-5-ylmethoxy]-phenyl}-hex-4-ynoic acid]	1 to 50
CC#C[C@@H](CC(=O)O)c1ccc(OCc2cccc3c2ccn3-c2ccc(F)cc2C)cc1 [Example 32, (S)-3-{4-[1-(4-fluoro-2-methyl-phenyl)-1H-indol-4-ylmethoxy]-phenyl}-hex-4-ynoic acid]	40
CC#C[C@@H](CC(=O)O)c1ccc(OCc2ccc3c(F)cn(Cc4ccccc4)c3c2C)cc1 [Example 62, (S)-3-[4-(1-benzyl-3-fluoro-7-methyl-1H-indol-6-ylmethoxy)-phenyl]-hex-4-ynoic acid]	50 to 500
CC#C[C@@H](CC(=O)O)c1ccc(OCc2ccc(C)c3c2cnn3C(C)C)cc1 [Example 223, (S)-3-[4-(1-isopropyl-7-methyl-1H-indazol-4-ylmethoxy)-phenyl]-hex-4-ynoic acid]	11
Cc1ccccc1-c1cn(C)c2ccc(COc3ccc(CCC(=O)O)cc3)cc12 [Example 21, 3-[4-(1-methyl-3-o-tolyl-1H-indol-5-ylmethoxy)-phenyl]-propanoic acid]	≥ 500
Cc1c(COc2ccc3c(c2)OCCC3CC(=O)O)ccc2ccn(Cc3ccccc3)c12 (stereo not shown) [Example 145, [7-(1-benzyl-7-methyl-1H-indol-6-ylmethoxy)-chroman-4-yl]-acetic acid]	40
O=C(O)CCc1ccc(NCc2ccc3c(Cl)c(Cl)n(Cc4ccccc4)c3c2)cc1 [Example 6, 3-{4-[(1-benzyl-2,3-dichloro-1H-indol-6-ylmethyl)-amino]-phenyl}-propanoic acid]	100
CC#C[C@@H](CC(=O)O)c1ccc(OCc2ccc3ccn(Cc4csc(C)n4)c3c2C)cc1 [Example 57, (S)-3-{4-[7-methyl-1-(2-methyl-thiazol-4-ylmethyl)-1H-indol-6-ylmethoxy]-phenyl}-hex-4-ynoic acid]	1 to 50

Compound	EC50 [nM]
CC#C[C@@H](CC(=O)O)c1ccc(OCc2ccc3ccn(Cc4ccccc4)c3c2C)cc1 [Example 25, (S)-3-[4-(1-benzyl-7-methyl-1H-indol-6-ylmethoxy)-phenyl]-hex-4-ynoic acid]	20
CC#C[C@@H](CC(=O)O)c1ccc(OCc2ccc3c(cnn3CC3CCOC3)c2)cc1 (stereo partly drawn) [Example 153, (S)-3-{4-[1-(tetrahydrofuran-3-ylmethyl)-1H-indazol-5-ylmethoxy]-phenyl}-hex-4-ynoic acid]	1 to 50
CC#C[C@@H](CC(=O)O)c1ccc(OCc2ccc3c(cnn3CCOCC)c2)cc1 [Example 157, (S)-3-{4-[1-(2-ethoxy-ethyl)-1H-indazol-5-ylmethoxy]-phenyl}-hex-4-ynoic acid]	1 to 50
CC#C[C@@H](CC(=O)O)c1ccc(OCc2ccc3ccn(Cc4c(C)cccc4C)c3c2C)cc1 [Example 39, (S)-3-{4-[1-(2,6-dimethyl-benzyl)-7-methyl-1H-indol-6-ylmethoxy]-phenyl}-hex-4-ynoic acid]	200
CC#C[C@@H](CC(=O)O)c1ccc(OCc2ccc3c(cnn3C3CCCC3)c2)cc1 [Example 164, (S)-3-[4-(1-cyclopentyl-1H-indazol-5-ylmethoxy)-phenyl]-hex-4-ynoic acid]	1 to 50
CC#C[C@@H](CC(=O)O)c1ccc(OCc2cnc3c(ccn3CC(C)C)c2)cc1 [Example 144, (S)-3-[4-(1-isobutyl-1H-pyrrolo[2,3-b]pyridin-5-ylmethoxy)-phenyl]-hex-4-ynoic acid]	1 to 50
CC#C[C@@H](CC(=O)O)c1ccc(OCc2cccc3c(Cl)nn(C)c23)cc1 [Example 201, (S)-3-[4-(3-chloro-1-methyl-1H-indazol-7-ylmethoxy)-methyl]-hex-4-ynoic acid]	10
CC#C[C@@H](CC(=O)O)c1ccc(OCc2ccc3cnn(Cc4ccc(C)nc4)c3c2)cc1 [Example 93, (S)-3-{4-[1-(6-methyl-pyridin-3-ylmethyl)-1H-indazol-6-ylmethoxy]-phenyl}-hex-4-ynoic acid]	50 to 500
CC#C[C@@H](CC(=O)O)c1ccc(OCc2cc3cnn(CC(C)C)c3cc2C)cc1 [Example 183, (S)-3-[4-(1-isobutyl-6-methyl-1H-indazol-5-ylmethoxy)-phenyl]-hex-4-ynoic acid]	1 to 50
CC#C[C@@H](CC(=O)O)c1ccc(OCc2ccc3nn(CC4CCOC4)cc3c2)cc1 (stereo partly drawn) [Example 154, (S)-3-{4-[2-(tetrahydrofuran-3-ylmethyl)-2H-indazol-5-ylmethoxy]-phenyl}-hex-4-ynoic acid]	≥ 500
CC#C[C@@H](CC(=O)O)c1ccc(OCc2ccc3c(COC)nn(CC(C)C)c3c2C)cc1 [Example 196, (S)-3-[4-(1-isobutyl-3-methoxymethyl-7-methyl-1H-indazol-6-ylmethoxy)-phenyl]-hex-4-ynoic acid]	5
CC#C[C@@H](CC(=O)O)c1ccc(OCc2ccc3cnn(Cc4ccccc4)c3c2)cc1 [Example 59, (S)-3-[4-(1-benzyl-1H-indazol-6-ylmethoxy)-phenyl]-hex-4-ynoic acid]	1 to 50
O=C(O)CCc1ccc(OCc2ccc3ccn(CC4CCCCC4)c3c2)cc1 [Example 19, 3-[4-(1-cyclohexylmethyl-1H-indol-6-ylmethoxy)-phenyl]-propanoic acid]	400
Cc1cc(F)ccc1-n1cc(Cl)c2ccc(COc3ccc(CCC(=O)O)cc3)cc21 [Example 22, 3-{4-[3-chloro-1-(4-fluoro-2-methyl-phenyl)-1H-indol-6-ylmethoxy)-phenyl]-propanoic acid]	40
CC#C[C@@H](CC(=O)O)c1ccc(OCc2ccc3c(COCC)nn(CC(C)C)c3c2)cc1 [Example 191, (S)-3-[4-(3-ethoxymethyl-1-isobutyl-1H-indazol-6-ylmethoxy)-phenyl]-hex-4-ynoic acid]	10
CC#C[C@@H](CC(=O)O)c1ccc(OCc2ccc3ccn(Cc4ncccn4)c3c2C)cc1 [Example 64, (S)-3-[4-(7-methyl-1-pyrimidin-2-ylmethyl-1H-indol-6-ylmethoxy)-phenyl]-hex-4-ynoic acid]	50 to 500
O=C(O)CC1CCOc2cc(OCc3ccc4c(cnn4Cc4ccccn4)c3)ccc21 (stereo not shown) [Example 142, [7-(1-pyridine-2-ylmethyl-1H-indazol-5-ylmethoxy)-chroman-4-yl]-acetic acid]	≥ 500
CC#C[C@@H](CC(=O)O)c1ccc(OCc2ccc3c(c2)ncn3Cc2ccccc2)cc1 [Example 125, (S)-3-[4-(1-benzyl-1H-benzoimidazol-5-ylmethoxy)-phenyl]-hex-4-ynoic acid]	20
CC#C[C@@H](CC(=O)O)c1ccc(OCc2ccc3c(cnn3CCCS(C)(=O)=O)c2)cc1 [Example 152, (S)-3-{4-[1-(3-methanesulfonyl-propyl)-1H-indazol-5-ylmethoxy]-phenyl}-hex-4-ynoic acid]	≥ 500
O=C(O)CC(C1=NOCC1)c1ccc(OCc2ccc3cnn(Cc4ccccc4)c3c2)cc1 (stereo not shown) [Example 65, 3-[4-(1-benzyl-1H-indazol-6-ylmethoxy)-phenyl]-3-(4,5-dihydro-isoxazol-3-yl)-propanoic acid]	50
